Tests used:
Type in all cases: in vivo
Ctenocephalides felis = Ctenocephalides felis oral test; settings: application rate 100 ppm in citrated cattle blood, kill after 2 days
Text: Solvent: dimethyl sulfoxide […] Dilution with citrated cattle blood gives the desired concentration. About 20 unfed adult cat fleas (Ctenocephalides felis) are placed into a chamber which is closed at the top and bottom with gauze. A metal cylinder whose bottom end is closed with parafilm is placed onto the chamber. The cylinder contains the blood/active ingredient formulation, which can be imbibed by the fleas through the parafilm membrane.

Spodoptera frugiperda = Spodoptera frugiperda spray test; settings: application rate 100 g/ha, caterpillars on maize leaf discs, after 7 days
Method: (§1) Solvent: 78.0 parts by weight of acetone • • 1.5 parts by weight of dimethylformamide Emulsifier: alkylaryl polyglycol ether […] To produce further test concentrations, the formulation is diluted with emulsifier-containing water. Leaf discs of maize (Zea mays) are sprayed with an active compound formulation of the desired concentration and, after drying, populated with caterpillars of the armyworm (Spodoptera frugiperda).

Phaedon cochleariae = Phaedon cochleariae spray test; settings: application rate 100 g/ha, larvae on Chinese cabbage leaf discs, after 7 days
Method: as §1, with “Discs” for “Leaf discs”, “Chinese cabbage leaves (Brassica pekinensis)” for “maize (Zea mays)”, “ingredient” for “compound”, “larvae” for “caterpillars”, “mustard beetle (Phaedon cochleariae).” for “armyworm (Spodoptera frugiperda).”

Meloidogyne incognita = Meloidogyne incognita test; settings: application rate 20 ppm, nematicidal efficacy by formation of galls on lettuce after 14 days
Method: Solvent: 125.0 parts by weight of acetone
To produce a suitable active ingredient formulation, 1 part by weight of active ingredient is mixed with the stated amount of solvent and the concentrate is diluted to the desired concentration with water.
Vessels are filled with sand, active ingredient solution, an egg/larvae suspension of the southern root-knot nematode (Meloidogyne incognita) and lettuce seeds. The lettuce seeds germinate and the plants develop. The galls develop on the roots.
After 14 days, the nematicidal efficacy in % is determined by the formation of galls. 100% means that no galls were found; 0% means that the number of galls on the treated plants corresponds to the untreated control.

Lucilia cuprina = Lucilia cuprina test; settings: application rate 100 ppm, L1 larvae, kill after 2 days
Method in brief: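 About 20 L1 larvae were placed in vessels of minced horsemeat containing compound, formulated in dimethyl sulfoxide and diluted with water to the test concentration. Kill (%) was scored after 2 days; 100% means all larvae dead, 0% none.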

Tetranychus urticae = Tetranychus urticae spray test, OP-resistant; settings: application rate 100 g/ha, all stages on bean leaf discs, after 6 days
Method: Solvent: 78.0 parts by weight of acetone • • 1.5 parts by weight of dimethylformamide Emulsifier: alkylaryl polyglycol ether […] To produce further test concentrations, the formulation is diluted with emulsifier-containing water. Discs of bean leaves (Phaseolus vulgaris) infested with all stages of the greenhouse red spider mite (Tetranychus urticae) are sprayed with an active ingredient formulation of the desired concentration.

Boophilus microplus = Boophilus microplus injection test; settings: application rate 20 μg/animal, after 7 days, laying of fertile eggs
Method: Solvent: dimethyl sulfoxide […] The animals are transferred into dishes and kept in a climate-controlled room. Efficacy is assessed after 7 days by laying of fertile eggs. Eggs which are not visibly fertile are stored in a climate-controlled cabinet until the larvae hatch after about 42 days.

Musca domestica = Musca domestica test; settings: application rate 100 ppm, adult houseflies, kill after 2 days
Method in brief: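 Compound dissolved in DMSO (10 mg per 0.5 ml), diluted with water to test concentration and applied to a sugar-solution sponge. Vessels held 10 adult houseflies; percent kill scored after 2 days (100% = all dead).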

SMILES | efficacy (Ctenocephalides felis) [%] | efficacy (Spodoptera frugiperda) [%] | efficacy (Phaedon cochleariae) [%] | efficacy (Meloidogyne incognita) [%] | efficacy (Lucilia cuprina) [%] | efficacy (Tetranychus urticae) [%] | efficacy (Boophilus microplus) [%] | efficacy (Musca domestica) [%]
Cc1cc(C(F)(C(F)(F)F)C(F)(F)F)cc(C(F)(F)F)c1-n1cc(-c2cc(NC(=O)c3ccc(C#N)nc3)ccc2F)cn1 [Example 2-3] | 100 | 100 | 100 | 90 | 100 | 90 | 100 | 100
Cc1cc(C(F)(C(F)(F)F)C(F)(F)F)cc(C(F)(F)F)c1-n1cc(-c2cc(NC(=O)c3ccc(Cl)nc3)ccc2F)cn1 [Example 2-4] | 95 | 100 | 100 | 90 | 90 | – | 100 | –
